{"source": "ChEMBL document CHEMBL5653627", "about": "(J Neurochem, 2017)", "key": {"SMA-497 [1]": {"system": "SMA-497", "experiment": "Antitumor activity against mouse SMA-497 cells xenografted in VM/Dk mouse assessed as decrease in tumor cell proliferation at 100 mg/kg,po daily with 12 Gy irradition after 2days of treatment initiation by Ki67 staining based immunohistochemistry analysis", "type": "functional, organism-based"}, "SMA-560 [2]": {"system": "SMA-560", "experiment": "Antitumor activity against mouse SMA-560 cells xenografted in VM/Dk mouse assessed as tumor cell proliferation at 100 mg/kg,po daily by Ki67 staining based immunohistochemistry analysis", "type": "functional, organism-based"}, "SMA-560 [3]": {"system": "SMA-560", "experiment": "Anti-clonogenicic activity in mouse SMA-560 cells assessed as reduction in colony formation at 0.001 to 10 uM and measured after 10 days by MTT based clonogenic survival assay", "type": "functional, cell-based", "conditions": "dose 0.001-10 µM, time 10.0 day"}, "SMA-560 [4]": {"system": "SMA-560", "experiment": "Induction of cell cycle arrest in mouse SMA-560 cells assessed as accumulation at sub G1 phase at 0.1 uM incubated for 72 hrs by propidium iodide/RNase staining based flow cytomtery (Rvb= 2%)", "type": "functional"}, "SMA-560 [5]": {"system": "SMA-560", "experiment": "Induction of apoptosis in mouse SMA-560 cells assessed as necrotic cells at 0.1 uM incubated for 72 hrs by Annexin V-FITC/PI staining based flow cytometric analysis (reference value: 13.5%)", "type": "functional"}, "SMA-497 [6]": {"system": "SMA-497", "experiment": "Induction of cell cycle arrest in mouse SMA-497 cells assessed as accumulation at G2/M phase at 0.1 uM incubated for 72 hrs by propidium iodide/RNase staining based flow cytomtery (Rvb= 14%)", "type": "functional"}, "SMA-540 [7]": {"system": "SMA-540", "experiment": "Anti-clonogenicic activity in mouse SMA-540 cells assessed as reduction in colony formation at 0.001 to 10 uM and measured after 10 days by MTT based clonogenic survival assay", "type": "functional, cell-based", "conditions": "dose 0.001-10 µM, time 10.0 day"}, "SMA-497 [8]": {"system": "SMA-497", "experiment": "Antitumor activity against mouse SMA-497 cells xenografted in VM/Dk mouse assessed as decrease in tumor volume at 100 mg/kg,po daily by H and E staining based microscopy", "type": "functional, organism-based"}, "GL261": {"system": "GL261", "experiment": "In vivo inhibition of TIE-2 in C57Bl/6 mouse xenografted with mouse GL261 cells assessed as decrease in TIE-2 expression in brain blood vessels at 100 mg/kg,po daily by immunohistochemistry analysis", "type": "functional, organism-based"}, "SMA-540 [9]": {"system": "SMA-540", "experiment": "Antitumor activity against mouse SMA-540 cells xenografted in VM/Dk mouse assessed as increase in number of tumor-infiltrating CD11b positive monocytes/microglia in tumor at 100 mg/kg,po daily by immunohistochemistry analysis", "type": "functional, organism-based"}, "[10]": {"experiment": "Toxicity in VM/Dk mouse xenografted with mouse SMA-497 cells assessed as survival rate at 100 mg/kg,po daily (Rvb=14 to 15%)", "type": "organism-based", "conditions": "in vivo"}, "SMA-560 [11]": {"system": "SMA-560", "experiment": "Induction of cell cycle arrest in mouse SMA-560 cells assessed as accumulation at G2/M phase at 0.1 uM incubated for 72 hrs by propidium iodide/RNase staining based flow cytomtery (Rvb= 25%)", "type": "functional"}, "SMA-497 [12]": {"system": "SMA-497", "experiment": "Cytotoxicity against mouse SMA-497 cells assessed as reduction in metabolic activity at 0.001 to 100 uM incubated for 72 hrs by MTT assay", "type": "functional, cell-based", "conditions": "dose 0.001-100 µM"}, "[13]": {"target": "T1, Discoidin domain-containing receptor 2 (Homo sapiens, UniProt Q16832)", "T1 sequence (Q16832 whole entry)": "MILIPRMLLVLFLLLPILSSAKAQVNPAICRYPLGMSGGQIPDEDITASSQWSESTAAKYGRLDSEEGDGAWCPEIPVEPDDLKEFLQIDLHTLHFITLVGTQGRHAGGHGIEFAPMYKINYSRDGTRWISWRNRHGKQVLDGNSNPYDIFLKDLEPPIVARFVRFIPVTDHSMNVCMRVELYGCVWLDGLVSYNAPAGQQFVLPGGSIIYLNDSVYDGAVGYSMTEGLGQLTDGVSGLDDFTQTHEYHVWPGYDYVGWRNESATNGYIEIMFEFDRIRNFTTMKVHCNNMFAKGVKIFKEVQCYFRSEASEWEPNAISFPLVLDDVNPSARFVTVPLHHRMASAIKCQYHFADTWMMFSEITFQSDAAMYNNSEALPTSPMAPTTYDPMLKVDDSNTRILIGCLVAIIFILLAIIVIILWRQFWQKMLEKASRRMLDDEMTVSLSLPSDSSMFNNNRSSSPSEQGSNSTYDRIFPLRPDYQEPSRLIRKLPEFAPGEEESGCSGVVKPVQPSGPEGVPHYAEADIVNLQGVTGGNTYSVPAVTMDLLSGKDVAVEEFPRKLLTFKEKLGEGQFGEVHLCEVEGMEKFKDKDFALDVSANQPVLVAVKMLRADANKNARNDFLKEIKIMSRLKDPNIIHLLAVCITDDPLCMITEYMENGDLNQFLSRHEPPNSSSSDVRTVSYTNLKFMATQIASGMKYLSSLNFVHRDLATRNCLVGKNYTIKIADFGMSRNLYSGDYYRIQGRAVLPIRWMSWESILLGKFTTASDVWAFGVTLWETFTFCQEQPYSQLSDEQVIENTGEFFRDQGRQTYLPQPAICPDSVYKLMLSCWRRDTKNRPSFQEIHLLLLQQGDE", "experiment": "Binding affinity to DDR2 (unknown origin) assessed as dissociation constant by KINOME scan assay"}, "SMA-560 [14]": {"system": "SMA-560", "experiment": "Antitumor activity against mouse SMA-560 cells xenografted in VM/Dk mouse assessed as increase in number of tumor-infiltrating CD11b positive monocytes/microglia in tumor at 100 mg/kg,po daily with 12 Gy irradition after 2days of treatment initiation by immunohistochemistry analysis", "type": "functional, organism-based"}, "SMA-560 [15]": {"system": "SMA-560", "experiment": "In vivo inhibition of TIE-2 in VM/Dk mouse xenografted with mouse SMA-560 cells assessed as decrease in TIE-2 expression in brain blood vessels at 100 mg/kg,po daily by immunohistochemistry analysis", "type": "functional, organism-based"}, "SMA-497 [16]": {"system": "SMA-497", "experiment": "Induction of apoptosis in mouse SMA-497 cells assessed as late apoptotic cells at 0.1 uM incubated for 72 hrs by Annexin V-FITC/PI staining based flow cytometric analysis (reference value: 1.86%)", "type": "functional"}, "SMA-560 [17]": {"system": "SMA-560", "experiment": "In vivo inhibition of TIE-2 in VM/Dk mouse xenografted with mouse SMA-560 cells assessed as decrease in TIE-2 expression in brain blood vessels at 100 mg/kg,po daily with 12 Gy irradition after 2days of treatment initiation by immunohistochemistry analysis", "type": "functional, organism-based"}, "SMA-497 [18]": {"system": "SMA-497", "experiment": "Induction of cell cycle arrest in mouse SMA-497 cells assessed as accumulation at S phase at 0.1 uM incubated for 72 hrs by propidium iodide/RNase staining based flow cytomtery (Rvb= 8%)", "type": "functional"}, "Angiopoietin-1 receptor": {"target": "Angiopoietin-1 receptor (Homo sapiens, UniProt Q02763)", "sequence (Q02763 whole entry)": "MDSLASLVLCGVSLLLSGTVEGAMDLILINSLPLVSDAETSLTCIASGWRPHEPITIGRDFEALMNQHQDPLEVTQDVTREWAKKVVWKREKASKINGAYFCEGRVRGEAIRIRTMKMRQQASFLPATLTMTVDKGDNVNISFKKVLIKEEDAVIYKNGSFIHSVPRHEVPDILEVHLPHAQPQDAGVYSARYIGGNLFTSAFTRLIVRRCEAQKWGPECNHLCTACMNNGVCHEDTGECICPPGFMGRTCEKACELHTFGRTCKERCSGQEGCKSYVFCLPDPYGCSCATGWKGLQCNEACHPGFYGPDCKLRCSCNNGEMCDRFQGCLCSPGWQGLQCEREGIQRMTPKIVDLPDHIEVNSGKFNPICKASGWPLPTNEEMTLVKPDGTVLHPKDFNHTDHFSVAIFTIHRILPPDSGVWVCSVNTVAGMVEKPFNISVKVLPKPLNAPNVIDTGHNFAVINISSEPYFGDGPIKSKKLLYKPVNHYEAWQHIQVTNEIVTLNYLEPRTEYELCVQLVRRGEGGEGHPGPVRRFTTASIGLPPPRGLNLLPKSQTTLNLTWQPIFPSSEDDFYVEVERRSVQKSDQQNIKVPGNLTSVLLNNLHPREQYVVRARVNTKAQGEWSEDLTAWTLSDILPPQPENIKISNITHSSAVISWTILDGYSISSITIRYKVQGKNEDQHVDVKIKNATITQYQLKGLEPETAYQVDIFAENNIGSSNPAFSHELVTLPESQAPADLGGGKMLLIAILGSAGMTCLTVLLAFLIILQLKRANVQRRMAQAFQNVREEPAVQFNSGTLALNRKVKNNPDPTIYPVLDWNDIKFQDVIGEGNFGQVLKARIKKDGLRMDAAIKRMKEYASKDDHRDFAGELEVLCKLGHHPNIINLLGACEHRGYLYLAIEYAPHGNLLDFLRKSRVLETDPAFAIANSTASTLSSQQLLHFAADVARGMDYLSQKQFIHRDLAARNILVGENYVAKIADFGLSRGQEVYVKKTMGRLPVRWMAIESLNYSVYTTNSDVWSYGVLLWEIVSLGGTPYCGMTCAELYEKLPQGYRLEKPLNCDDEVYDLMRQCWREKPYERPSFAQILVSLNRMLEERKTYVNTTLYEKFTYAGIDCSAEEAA", "experiment": "Binding affinity to TIE2 (unknown origin) assessed as dissociation constant by KINOME scan assay"}, "SMA-497 [19]": {"system": "SMA-497", "experiment": "Induction of apoptosis in mouse SMA-497 cells assessed as necrotic cells at 0.1 uM incubated for 72 hrs by Annexin V-FITC/PI staining based flow cytometric analysis (reference value: 14.7%)", "type": "functional"}, "SMA-560 [20]": {"system": "SMA-560", "experiment": "Induction of cell cycle arrest in mouse SMA-560 cells assessed as accumulation at S phase at 0.1 uM incubated for 72 hrs by propidium iodide/RNase staining based flow cytomtery (Rvb= 2%)", "type": "functional"}, "SMA-540 [21]": {"system": "SMA-540", "experiment": "Cytotoxicity against mouse SMA-540 cells assessed as reduction in metabolic activity at 0.001 to 100 uM incubated for 72 hrs by MTT assay", "type": "functional, cell-based", "conditions": "dose 0.001-100 µM"}}, "note": "Active and inactive are the calls of the source. No cut-off for these calls is given here.", "data": [{"compound": "Cc1cc(C)c(-n2ccn3nc(-c4cccnc4)cc23)cc1NC(=O)c1cc(C#N)cc(S(F)(F)(F)(F)F)c1", "note": "[BAY-826]", "values": [{"measurement": "Activity", "setting": "SMA-497 [1]", "result": "Active"}, {"measurement": "Activity", "setting": "SMA-560 [2]", "result": "inactive"}, {"measurement": "Activity", "setting": "SMA-560 [3]", "result": "inactive"}, {"measurement": "Activity", "setting": "SMA-560 [4]", "result": 2, "unit": "%"}, {"measurement": "Activity", "setting": "SMA-560 [5]", "result": 8.81, "unit": "%"}, {"measurement": "Activity", "setting": "SMA-497 [6]", "result": 10, "unit": "%"}, {"measurement": "Activity", "setting": "SMA-540 [7]", "result": "inactive"}, {"measurement": "Activity", "setting": "SMA-497 [8]", "result": "inactive"}, {"measurement": "inhibition", "setting": "GL261", "result": "Active"}, {"measurement": "Activity", "setting": "SMA-540 [9]", "result": "Active"}, {"measurement": "Survival", "setting": "[10]", "result": 17, "unit": "%"}, {"measurement": "Activity", "setting": "SMA-560 [11]", "result": 28, "unit": "%"}, {"measurement": "Activity", "setting": "SMA-497 [12]", "result": "inactive"}, {"measurement": "Kd", "setting": "[13]", "result": 1.3, "unit": "nM"}, {"measurement": "Activity", "setting": "SMA-560 [14]", "result": "Active"}, {"measurement": "inhibition", "setting": "SMA-560 [15]", "result": "Active"}, {"measurement": "Activity", "setting": "SMA-497 [16]", "result": 0.3, "unit": "%"}, {"measurement": "inhibition", "setting": "SMA-560 [17]", "result": "Active"}, {"measurement": "Activity", "setting": "SMA-497 [18]", "result": 11, "unit": "%"}, {"measurement": "Kd", "setting": "Angiopoietin-1 receptor", "result": 1.6, "unit": "nM"}, {"measurement": "Activity", "setting": "SMA-497 [19]", "result": 18.3, "unit": "%"}, {"measurement": "Activity", "setting": "SMA-560 [20]", "result": 3, "unit": "%"}, {"measurement": "Activity", "setting": "SMA-540 [21]", "result": "inactive"}]}]}
